Results published in patent US8519006B2, “Use of sphingosine-1 phosphate (S1P) receptor agonists for the treatment of brain degenerative diseases” (Novartis AG, priority 2003, dated 2013).
Read-outs that look alike come from different tables or passages of the source.

What was measured:
Acute toxicity (LD50) [1] = settings: rat, in vivo, po
human monocytes [2] = assay: Monocyte chemotaxis toward Aβ (48-blindwell microchemotaxis chamber); format: cell-based
[3] = system: subjects exhibiting mild to moderate Alzheimer dementia; assay: Clinical trial, EEG and psychometric tests; format: in vivo, human; settings: ca. 0.25 to ca. 10 mg/p.o. once or divided 2 or 3×; tests at 60, 120 and 180 minutes
Acute toxicity (LD50) [4] = settings: monkey, in vivo, po
human monocytes [5] = assay: Monocyte chemotaxis toward Aβ precursor protein (Aβ-PP); format: cell-based
[6] = monocytes pre-incubated with enzyme blocker, washed, chemotaxis toward Aβ-PP (1 pmol/l), GFX 500 nmol/l, IBMX 10 ng/ml, Tyrphostin-23 10 ng/ml, WTN 10 nmol/l, CTX 1 nmol/l, PTX 1 nmol/l, Medium 1.639 (0.076)
[7] = monocytes pre-incubated with enzyme blocker, washed, chemotaxis toward Aβ (1 pmol/l), GFX 500 nmol/l, IBMX 10 ng/ml, Tyrphostin-23 10 ng/ml, WTN 10 nmol/l, CTX 1 nmol/l, PTX 1 nmol/l, Medium 1.786 (0.078)

CCCCCCCCc1ccc(CCC(N)(CO)CO)cc1.Cl [Compound A, 2-amino-2-[2-(4-octylphenyl)ethyl]propane-1,3-diol]
LD50 (Acute toxicity (LD50) [1]): > 10 mg/kg | Chemotaxis Mean (+/−SEM) (human monocytes [2]; chemotaxis index, monocytes incubated 20 min with 2 ng/ml, washed, chemotaxis toward Aβ [1 pmol/L], Medium 1.825 (0.14)): 1.077 (0.18) | condition as evidenced by EEG results and psychometric tests compared with placebo [3]: improved condition | LD50 (Acute toxicity (LD50) [4]): > 10 mg/kg

CN(C)CCCn1cc(C2=C(c3c[nH]c4ccccc34)C(=O)NC2=O)c2ccccc21 [GFX]
Chemotaxis Index Aβ-PP Mean (+/−SEM) (human monocytes [5]; [6]): 1.098 (0.10) | Chemotaxis Index Aβ Mean (+/−SEM) (human monocytes [2]; [7]): 1.143 (0.08)

CC(C)Cn1c(=O)n(C)c(=O)c2[nH]cnc21 [IBMX]
Chemotaxis Index Aβ-PP Mean (+/−SEM) (human monocytes [5]; [6]): 1.208 (0.09) | Chemotaxis Index Aβ Mean (+/−SEM) (human monocytes [2]; [7]): 1.234 (0.06)

N#CC(C#N)=Cc1ccc(O)c(O)c1 [Tyrphostin-23]
Chemotaxis Index Aβ-PP Mean (+/−SEM) (human monocytes [5]): 1.398 (0.07) | Chemotaxis Index Aβ Mean (+/−SEM) (human monocytes [2]): 1.435 (0.04)

COC[C@H]1OC(=O)c2coc3c2[C@@]1(C)C1=C(C3=O)[C@@H]2CCC(=O)[C@@]2(C)C[C@H]1OC(C)=O [WTN]
Chemotaxis Index Aβ-PP Mean (+/−SEM) (human monocytes [5]; [6]): 1.115 (0.08) | Chemotaxis Index Aβ Mean (+/−SEM) (human monocytes [2]; [7]): 1.023 (0.05)
